Data published in patent US12643887B2, “Heterocyclic derivatives with cardiomyocyte proliferation activity for treatment of heart diseases” (Tongji University, priority 2019, dated 2026).
One block for each compound: values may come before it.

What was measured:
[1] = system: Neonatal Rat Ventricular Myocytes (NRVMs); experiment: Myocyte proliferation assay (EdU assay) in neonatal rat ventricular myocytes; format: cell-based; conditions: growth relative to blank myocyte growth without compound added; for Avg 1 uM (average myocyte proliferation): compound 1 uM; for Avg 3 uM (average myocyte proliferation): compound 3 uM; for Avg 10 uM (average myocyte proliferation): compound 10 uM
Description: 1. Isolation of and Culture Neonatal Rat Ventricular Myocytes (NRVMs)
Ventricles from neonatal rats were separated from the atria, cut into small pieces (about 2×2 mm^2) and then dissociated in Ca2+-free HBSS containing 0.125 mg ml-1 trypsin (Gibco), 10 μg ml-1 DNase II (Sigma) and 0.1 mg ml-1 collagenase type IV (Sigma). The digestion was carried out under constant stirring at 37° C. for 5 min. The supernatant was collected with FBS (Gibco) after each digestion period. After digestion, the collected supernatant was centrifuged at 1000 g for 10 min at room temperature, and then cell pellets were resuspended in DMEM (Gibco) supplemented with 10% FBS and with 100 uM 5-bromo-2′-deoxyuridine (Sigma). The resuspended cells were passed through a cell strainer ([…], BD Falcon) and seeded onto 100-mm plastic dishes for 2 h at 37° C. in a 5% CO2 to remove fibroblasts, the supernatant was then collected and plated onto 1% gelatin (Sigma)-coated dishes. 24 h after the seeding, the medium was changed to DMEM (Gibco) containing 2% FBS (Gibco), 1% insulin-transferrin-selenium (ITS; Gibco), 1% Penicillin-Streptomycin (Gibco). After 24 hours of low serum culture, remove the medium with DMEM (Gibco) containing 6% FBS (Gibco), 1% insulin-transferrin-selenium (ITS; Gibco), 1% Penicillin-Streptomycin (Gibco), different concentrations of compounds (the compounds were pre-diluted in the medium and the drug concentration was 10 uM, 3 uM, 1 uM, fully mixed). After 36 h add Edu substrate (Invitrogen) according to the manufacturer's guidelines, and then after 12 h cell can be used.
• 2.1. Immobilization: Remove the medium and fix the cells with […] in 200 ul (whichever is covered) for 15 min and wash the cells twice with 500 ul of PBS for 5 min each time. • 2.2. Broken membrane: Add 200 ul of 0.3% Triton-X 100 (diluted in PBS) to each well, incubate for 10-15 min at room temperature (the time should not be too long), and wash the cells twice with 500 ul of PBS for 5 min each time. • 2.3. Blocking: Add 200 ul of 10% normal goat serum (diluted with 0.1% PBST) to each well, incubate for 1 h at room temperature, and wash twice with 500 ul of 0.1% PBST for 5 min each time. • 2.4. Primary antibody: dilute the primary antibody (abcam, ab8295) to blocking solution at a ratio of 1:200, add 100 ul per well, incubate for 1 h at room temperature (may be slightly longer than 2-3 h), wash the cells twice with 500 ul 0.1% PBST for 5 min each time. • 2.5. Secondary antibody: Dilute the fluorescently labeled secondary antibody (abcam, ab150117) into blocking solution at a ratio of 1:200, add 100 ul per well, incubate for 1 h at room temperature (the time should not be too long), wash the cells twice with 0.1% PBST for 5 min each time, pay attention to the whole process. Protected from light. • 2.6. Edu staining (Invitrogen C10338) • 2.6.1 Prepare Click-iT® reaction cocktail according to Table 3. It was important to add the ingredients in the order listed in the table; otherwise, the reaction would not proceed optimally. Use the Click-iT® reaction cocktail within 15 minutes of preparation.
• 2.6.2 Add 0.1 mL of Click-iT® reaction cocktail to each well containing a coverslip. Rock the plate briefly to ensure that the reaction cocktail is distributed evenly over the coverslip. • 2.6.3 Incubate the plate for 30 minutes at room temperature, protected from light. • 2.6.4 Remove the reaction cocktail, then wash the cells twice with 0.1% PBST for 5 min each time. • 2.7. DAPI staining: DAPI stain was diluted to PBS at a ratio of 1:1000, 100 ul per well, incubated for 30 min at room temperature, and the cells were washed twice with PBS for 5 min each. 3. Data Analysis
We used Molecular Devices' Image Xpress Micro Confocal for high-throughput photo and data analysis.

human DYRK1A = molecular target: T1, human DYRK1A (Homo sapiens, UniProt Q13627); experiment: DYRK1A enzyme assay (ADP-Glo); format: biochemical; conditions: ADP-Glo, ATP 60 μM; read-out: DYRK1A IC50
T1 construct: Recombinant full-length DYRK1A (expressed in E. Coli cells with an N-terminal GST tag); GST (N); purchased SignalChem D09-10G; host or cells: E. coli
Description: The ability of compounds to inhibit human DYRK1A kinase activities was determined using a commercially available ADP-Glo™ Kinase Assay kit (Promega, Cat #V9102) according to the manufacturer's protocol.
Recombinant full-length DYRK1A (expressed in E. Coli cells with an N-terminal GST tag) was purchased from SignalChem (Cat #D09-10G). The DYRK substrate peptide (DYRKtide, sequence: […]) was purchased from SignalChem (Cat #D96-58). This assay, run in a 384-well plate format, is a generic method for measuring kinase activities using an ADP-Glo Kinase Assay Kit. The basic assay procedure involves two steps: (1) Enzymatic step: inhibitors are incubated with the kinase and then ATP (included in the ADP-Glo Kinase Assay Kit) and the DYRKtide are added to start the enzymatic reaction; (2) Detection step: after the kinase reaction, first ADP-Glo™ Reagent is added to terminate the kinase reaction and deplete the remaining ATP. Second, the Kinase Detection Reagent is added to simultaneously convert ADP to ATP and allow the newly synthesized ATP to be measured using a luciferase/luciferin reaction. The light generated is measured using a luminometer.
Briefly, DYRK1A (3 nM) in the enzymatic buffer solutions (40 mM Tris, pH 7.5, 20 mM MgCl2, 0.1 mg/ml BSA, 50 μM DTT) were mixed with various concentrations of inhibitors (dissolved in 100% DMSO). These solutions were incubated for 30 minutes at 25° C., and subsequently a mixture of substrate peptide and ATP was added with the final peptide and ATP concentrations at 20 μM and 60 μM, respectively. The final reaction mixture of enzyme-substrate-ATP-compound was incubated for 60 minutes at 25° C.
Afterwards ADP-Glo™ Reagent was added and the mixture was incubated at 25° C. for 60 minutes. Then Kinase Detection Reagent was added and the final mixture was incubated at 25° C. for 60 minutes. The luminescence signal of the final solution was measured on an Envision instrument (PerkinElmer). The percent (%) inhibition at each concentration of a compound is calculated relative to the luminescence signal in the Max and Min control wells contained within each assay plate. […] The concentrations and percent inhibition values for a test compound are plotted and the concentration of the compound required to achieve 50% inhibition (IC50) is determined with a four-parameter logistic dose response equation.

Structure (SMILES): O=C1NC(Nc2ccccc2)=N/C1=C\c1ccc(=O)[nH]c1 [Example 9, (Z)-5-((5-oxo-2-(phenylamino)-1,5-dihydro-4H-imidazol-4-ylidene)methyl)pyridin-2(1H)-one]
Avg 1 uM (average myocyte proliferation) [1]: * (<10% growth relative to blank myocyte growth without compound added.)
Avg 3 uM (average myocyte proliferation) [1]: ** (10%-50%)
Avg 10 uM (average myocyte proliferation) [1]: ** (10%-50%)
IC50 (human DYRK1A): 0.1 to 1 µM

Structure (SMILES): O=C1NC(N(CC2CC2)c2ccccc2)=N/C1=C\c1ccc2c(c1)OCO2 [Example 10, (Z)-5-(benzo[d][1,3]dioxol-5-ylmethylene)-2-((cyclopropylmethyl)(phenyl)amino)-3,5-dihydro-4H-imidazol-4-one]
Avg 1 uM (average myocyte proliferation) [1]: ** (10%-50%)
Avg 3 uM (average myocyte proliferation) [1]: * (<10% growth relative to blank myocyte growth without compound added.)
Avg 10 uM (average myocyte proliferation) [1]: *** (>50%)
IC50 (human DYRK1A): 0.1 to 1 µM

Structure (SMILES): CN(CC1CC1)C1=N/C(=C\c2ccc3c(c2)OCO3)C(=O)N1 [Example 11, (Z)-5-(benzo[d][1,3]dioxol-5-ylmethylene)-2-((cyclopropylmethyl)(methyl)amino)-3,5-dihydro-4H-imidazol-4-one]
Avg 1 uM (average myocyte proliferation) [1]: ** (10%-50%)
Avg 3 uM (average myocyte proliferation) [1]: ** (10%-50%)
Avg 10 uM (average myocyte proliferation) [1]: *** (>50%)
IC50 (human DYRK1A): 0.1 to 1 µM

Structure (SMILES): COc1ccc(N(C)C2=N/C(=C\c3ccc4c(c3)OCO4)C(=O)N2)cc1 [Example 12, (Z)-5-(benzo[d][1,3]dioxol-5-ylmethylene)-2-((4-methoxyphenyl)(methyl)amino)-3,5-dihydro-4H-imidazol-4-one]
Avg 1 uM (average myocyte proliferation) [1]: * (<10% growth relative to blank myocyte growth without compound added.)
Avg 3 uM (average myocyte proliferation) [1]: ** (10%-50%)
IC50 (human DYRK1A): 0.1 to 1 µM

IC50 (human DYRK1A): 0.1 to 1 µM
Structure (SMILES): O=C1NC(N(CCO)c2ccccc2)=N/C1=C\c1ccc2c(c1)OCO2 [Example 13, (Z)-5-(benzo[d][1,3]dioxol-5-ylmethylene)-2-((2-hydroxyethyl)(phenyl)amino)-3,5-dihydro-4H-imidazol-4-one]
Avg 1 uM (average myocyte proliferation) [1]: * (<10% growth relative to blank myocyte growth without compound added.)
Avg 3 uM (average myocyte proliferation) [1]: ** (10%-50%)

Structure (SMILES): O=C1NC(Nc2ccccc2)=N/C1=C\c1ccc2scnc2c1 [Example 14, (Z)-5-(benzo[d]thiazol-5-ylmethylene)-2-(phenylamino)-3,5-dihydro-4H-imidazol-4-one]
Avg 1 uM (average myocyte proliferation) [1]: * (<10% growth relative to blank myocyte growth without compound added.)
Avg 3 uM (average myocyte proliferation) [1]: ** (10%-50%)
IC50 (human DYRK1A): > 10 µM

Structure (SMILES): O=C1NC(Nc2ccccc2)=N/C1=C\c1cncs1 [Example 15, (Z)-2-(phenylamino)-5-(thiazol-5-ylmethylene)-3,5-dihydro-4H-imidazol-4-one]
Avg 1 uM (average myocyte proliferation) [1]: * (<10% growth relative to blank myocyte growth without compound added.)
Avg 3 uM (average myocyte proliferation) [1]: ** (10%-50%)
IC50 (human DYRK1A): > 10 µM

Structure (SMILES): O=C1NC(Nc2ccccc2)=N/C1=C\c1ccc2nccnc2c1 [Example 16, (Z)-2-(phenylamino)-5-(quinoxalin-6-ylmethylene)-3,5-dihydro-4H-imidazol-4-one]
Avg 1 uM (average myocyte proliferation) [1]: * (<10% growth relative to blank myocyte growth without compound added.)
Avg 3 uM (average myocyte proliferation) [1]: * (<10% growth relative to blank myocyte growth without compound added.)
IC50 (human DYRK1A): < 0.1 µM

Structure (SMILES): CN(C1=N/C(=C\c2ccc3c(c2)OC(F)(F)O3)C(=O)N1)c1ccccc1 [Example 17, (Z)-5-((2,2-difluorobenzo[d][1,3]dioxol-5-yl)methylene)-2-(methyl(phenyl)amino)-3,5-dihydro-4H-imidazol-4-one]
Avg 1 uM (average myocyte proliferation) [1]: * (<10% growth relative to blank myocyte growth without compound added.)
Avg 3 uM (average myocyte proliferation) [1]: * (<10% growth relative to blank myocyte growth without compound added.)
Avg 10 uM (average myocyte proliferation) [1]: * (<10% growth relative to blank myocyte growth without compound added.)
IC50 (human DYRK1A): > 10 µM

IC50 (human DYRK1A): 0.1 to 1 µM
Structure (SMILES): CN(C1=N/C(=C\c2ccc3c(c2)OCO3)C(=O)N1)c1cccnc1 [Example 18, (Z)-5-(benzo[d][1,3]dioxol-5-ylmethylene)-2-(methyl(pyridin-3-yl)amino)-3,5-dihydro-4H-imidazol-4-one]
Avg 1 uM (average myocyte proliferation) [1]: * (<10% growth relative to blank myocyte growth without compound added.)
Avg 3 uM (average myocyte proliferation) [1]: * (<10% growth relative to blank myocyte growth without compound added.)
Avg 10 uM (average myocyte proliferation) [1]: ** (10%-50%)

IC50 (human DYRK1A): 0.1 to 1 µM
Structure (SMILES): CN(CC1CC1)C1=N/C(=C\c2ccc3c(c2)OCCO3)C(=O)N1 [Example 19, (Z)-2-((cyclopropylmethyl)(methyl)amino)-5-((2,3-dihydrobenzo[b][1,4]dioxin-6-yl)methylene)-3,5-di hydro-4H-imidazol-4-one]
Avg 1 uM (average myocyte proliferation) [1]: * (<10% growth relative to blank myocyte growth without compound added.)
Avg 3 uM (average myocyte proliferation) [1]: * (<10% growth relative to blank myocyte growth without compound added.)
Avg 10 uM (average myocyte proliferation) [1]: * (<10% growth relative to blank myocyte growth without compound added.)

Structure (SMILES): CN(CCN1CCOCC1)C1=N/C(=C\c2ccc3c(c2)OCO3)C(=O)N1 [Example 20, (Z)-5-(benzo[d][1,3]dioxol-5-ylmethylene)-2-(methyl(2-morpholinoethyl)amino)-3,5-dihydro-4H-imidazol-4-one]
Avg 1 uM (average myocyte proliferation) [1]: * (<10% growth relative to blank myocyte growth without compound added.)
Avg 3 uM (average myocyte proliferation) [1]: * (<10% growth relative to blank myocyte growth without compound added.)
Avg 10 uM (average myocyte proliferation) [1]: ** (10%-50%)
IC50 (human DYRK1A): 0.1 to 1 µM
